Consider one molecule from patent EP3431088A1, “MNTBAP FOR USE IN INDUCING A TRANSIENT IMMUNE TOLERANCE” (priority 2017, dated 2019).

One series concerns rAAV1 CMV mSeap vector. Put plainly: rAAV readministration in TA: mSeap expression and vector copy number. The series is classed as in vivo, C57BL/6 mice. The procedure:
MnTBAP (Calbiochem, San Diego, USA or Enzo Life Sciences, Farmingdale, USA) is dissolved in 75 mM NaOH to constitute a 20 mM stock solution. MnTBAP is dissolved in the complete medium, used for in vitro treatment, containing RPMI-1640 supplemented with 10% heat-inactivated fetal calf serum, 100 U/ml penicillin/streptomycin, 2 mM glutamax and 50 µM β-mercaptoethanol β-ME). Hypertonic medium, used to block clathrin dependent endocytosis, is complete medium supplemented with 0.45 M sucrose. For in vivo treatment, the stock solution is diluted with PBS and administered at 80 mg/kg intraperitoneally daily during five days. Control animals are injected with equivalent volume of PBS.
Readministration protocol: After the initial IV injection of rAAV2/1 CMV SGCA HY vector at D0 (two hours post first IP injection of MnTBAP) the second rAAV1 injection (2.10^9 vg of rAAV2/1 CMV mSeAP) is performed 28 days later in the left TA muscle. Mice are followed up to 93 days after readministration to analyze capsid-specific humoral response and to measure circulating mSeAP from serum samples. Mice are killed 93 days after second injection of vector. […]
Genomic DNA is extracted from frozen muscles using MagNA Pure 96 Instrument (Roche). […] Results are calculated from a standard curve based on dilutions of 2 plasmids containing either the Titin or CMV sequences. […]
Determination of alkaline phosphatase concentration in immunized mice sera is performed by chemoluminescence analyzis (C. Riviere et al., Gene therapy 13, 1300. 2006). Blood samples are centrifuged for 10 min at 8000 rpm to collect sera, endogenous alkaline phosphatase is heat inactivated for 5 min at 65°C and the heat-resistant mSeAP is measured by addition of the reaction buffer and CSPD® chemiluminescent substrate, according to the manufacturer's instructions (Tropix, Applied Biosystems, Forster City, USA). Chemiluminescence is quantified using a luminometer, Enspire (Perkin Elmer, Massachusetts, USA). Expression levels are expressed as ng of mSeAP per ml of serum using a standard curve of purified human placental alkaline phosphatase.

For a further series, the system named is CD4. Put plainly: Time-lapse microscopy of CD4 cell surface fluorescence. The format is cell-based, murine. The settings on record: time lapse for 4 hours, 400 µM, vs control. The procedure: Murine splenic CD4^+ T cells are first stained with CFSE, according to the manufacturer's recommendations (Invitrogen), and then with rat anti-mouse CD4-APC (RM4-5, BD Biosciences) mAb. After staining, cells are incubated in Ibidi's µ-chambers culture dish (Ibidi, Nanterre, France) in the thermo-regulated chamber of the Zeiss Axiovert 100 M confocal microscope. A time lapse acquisition is performed with a delay of 120 sec between frames. Each frame is illuminated using a 488 nm and 633 nm lasers, and fluorescence collected using 505-580 nm and 644-719 nm filters. The magnification is 40x/1.3 oil and images are saved as 8bits. The image stack is splitted using ImageJ-1.43, and images analyzed using CellProfiler 2.0.10415. The cell segmentation is performed on the CFSE fluorescence, and the fluorescence of the CD4 staining analyzed using the R software. Intensity is normalized to the maximum fluorescence measured at T0 for each condition.

For series [1], the system named is splenic enriched CD4^+ T cells. Put plainly: Cell viability by Fixable Viability Dye eFluor 780, flow cytometry. The series is classed as cell-based, murine. The conditions noted are these: 400 µM, 2 hours. The procedure:
After mechanic disruption of the spleen, erythrocytes are eliminated by hypotonic shock with ammonium chloride potassium (ACK) lysing buffer. Then CD4^+ T cells are isolated from spleen cell suspension by negative selection using a CD4^+ T cell isolation kit (Miltenyi Biotec, Paris, France) followed by auto-MACS (Miltenyi Biotec) magnetic sorting, according to the manufacturer's instructions. Purity of isolated CD4^+ T cells is usually > 95%. Cell suspensions are first incubated with anti-FcγRIII/II (Fc Block, 2.4G2, BD Biosciences, Le Pont de Claix, France) monoclonal antibodies (mAb) for 10 minutes at 4°C and then stained for 30 minutes at 4°C in PBS, 0.1% bovine serum albumin (BSA) with Fc Block present, using saturating amounts of rat anti-mouse CD4-Pacific Blue (RM4-5, BD Biosciences) mAb. Gates for CD4^+ populations are set according to isotype controls. Cell viability is determined by staining with 7-aminoactinomycin D (7-AAD; Sigma-Aldrich, St-Quentin-Fallavier, France) or Fixable Viability Dye eFluor 780 (eBiosciences, Paris, France). When indicated, samples are fixed with 1% paraformaldehyde. Samples are acquired on an LSR II flow cytometer (BD Biosciences) and data were analyzed with DIVA software (BD Biosciences).
(In flow cytometry, cells or beads pass a laser one at a time.)

Turning to `O=C(O)c1ccc(-c2c3nc(c(-c4ccc(C(=O)O)cc4)c4ccc([n-]4)c(-c4ccc(C(=O)O)cc4)c4nc(c(-c5ccc(C(=O)O)cc5)c5ccc2[n-]5)C=C4)C=C3)cc1.[Mn+3]` [MnTBAP, manganese [III] tetrakis (4-benzoic acid) porphyrin], the “level of mSeap in the serum” value with rAAV1 CMV mSeap vector (93 days after vector readministration, vs control mice) is “significantly increased”. Further, in the series with rAAV1 CMV mSeap vector (injected TA harvested 93 days after vector readministration), the “histochemical detection of mSeap in muscle” value is “detection of the reporter gene mSeap”. Also, in the series with rAAV1 CMV mSeap vector (injected TA, CMV PCR normalized to titin, vs control mice), the “normalized copy number of the readministered rAAV” value was “significantly increased”. Moreover, in the series with CD4, the “CD4 cell surface fluorescence over time” value was “CD4 declines on CD4^+ T cells”. Moreover, the “cell death (eFluor 780+ dead cells)” value in series [1] is “doesn't result in more eFluor 780+ dead cells”.
